Experimental data: ChEMBL document CHEMBL1124696, “Nucleoside peptides. 10. Synthesis and T-cell immunostimulatory properties of certain peptide derivatives of 6-azacadeguomycin” (1989)

Tests used:
Assay type in all cases: functional
Homo sapiens [1] = species on record: Homo sapiens; test: Mitogen-induced human lymphocyte proliferation measured by incorporation of [3H]thymidine in lymphocytes with Phytohemagglutininin at a concentration of 1 ug with compound at 400 uM
Homo sapiens [2] = species on record: Homo sapiens; test: Mitogen-induced human lymphocyte proliferation measured by incorporation of [3H]thymidine in lymphocytes with Phytohemagglutininin at a concentration of 0.125 microg with compound at 0.1 uM
Homo sapiens [3] = species on record: Homo sapiens; test: Mitogen-induced human lymphocyte proliferation measured by incorporation of [3H]thymidine in lymphocytes with Phytohemagglutininin at a concentration of 1 ug with out compound
Homo sapiens [4] = species on record: Homo sapiens; test: Mitogen-induced human lymphocyte proliferation measured by incorporation of [3H]thymidine in lymphocytes with Concanavalin A (Con A) at a concentration of 0.25 microg with out compound
Homo sapiens [5] = species on record: Homo sapiens; test: Mitogen-induced human lymphocyte proliferation measured by incorporation of [3H]-thymidine in lymphocytes with Pokeweed mitogen at a concentration of 1/1250 microg with out compound
Homo sapiens [6] = species on record: Homo sapiens; test: Mitogen-induced human lymphocyte proliferation measured by incorporation of [3H]thymidine in lymphocytes with Pokeweed mitogen at a concentration of 1/1250 microg with compound at 1 uM
Homo sapiens [7] = species on record: Homo sapiens; test: Mitogen-induced human lymphocyte proliferation measured by incorporation of [3H]thymidine in lymphocytes with Phytohemagglutininin at a concentration of 1 ug with compound at 0.1 uM
Homo sapiens [8] = species on record: Homo sapiens; test: Mitogen-induced human lymphocyte proliferation measured by incorporation of [3H]thymidine in lymphocytes with Concanavalin A (Con A) at a concentration of 0.25 microg with compound at 10 uM
Homo sapiens [9] = species on record: Homo sapiens; test: Mitogen-induced human lymphocyte proliferation measured by incorporation of [3H]thymidine in lymphocytes with Pokeweed mitogen at a concentration of 1/5000 microg with compound at 1 uM
Homo sapiens [10] = species on record: Homo sapiens; test: Mitogen-induced human lymphocyte proliferation measured by incorporation of [3H]thymidine in lymphocytes with Pokeweed mitogen at a concentration of 1/1250 microg with compound at 0.1 uM
Homo sapiens [11] = species on record: Homo sapiens; test: Mitogen-induced human lymphocyte proliferation measured by incorporation of [3H]thymidine in lymphocytes with Pokeweed mitogen at a concentration of 1/5000 microg with compound at 400 uM
Homo sapiens [12] = species on record: Homo sapiens; test: Mitogen-induced human lymphocyte proliferation measured by incorporation of [3H]thymidine in lymphocytes with Concanavalin A (Con A) at a concentration of 0.25 microg with compound at 50 uM
Homo sapiens [13] = species on record: Homo sapiens; test: Mitogen-induced human lymphocyte proliferation measured by incorporation of [3H]thymidine in lymphocytes with Phytohemagglutininin at a concentration of 0.125 microg with out compound
Homo sapiens [14] = species on record: Homo sapiens; test: Mitogen-induced human lymphocyte proliferation measured by incorporation of [3H]thymidine in lymphocytes with Concanavalin A at a concentration of 0.25 microg with compound at 400 uM
Homo sapiens [15] = species on record: Homo sapiens; test: Mitogen-induced human lymphocyte proliferation measured by incorporation of [3H]thymidine in lymphocytes with Pokeweed mitogen at a concentration of 1/1250 microg with compound at 50 uM
Homo sapiens [16] = species on record: Homo sapiens; test: Mitogen-induced human lymphocyte proliferation measured by incorporation of [3H]thymidine in lymphocytes with Concanavalin A (Con A) at a concentration of 0.25 microg with compound at 1 uM
Homo sapiens [17] = species on record: Homo sapiens; test: Mitogen-induced human lymphocyte proliferation measured by incorporation of [3H]thymidine in lymphocytes with Phytohemagglutininin at a concentration of 0.125 microg with compound at 400 uM
Homo sapiens [18] = species on record: Homo sapiens; test: Mitogen-induced human lymphocyte proliferation measured by incorporation of [3H]thymidine in lymphocytes with Phytohemagglutininin at a concentration of 1 ug with compound at 50 uM
Homo sapiens [19] = species on record: Homo sapiens; test: Mitogen-induced human lymphocyte proliferation measured by incorporation of [3H]thymidine in lymphocytes with Phytohemagglutininin at a concentration of 1 ug with compound at 1 uM
Homo sapiens [20] = species on record: Homo sapiens; test: Mitogen-induced human lymphocyte proliferation measured by incorporation of [3H]thymidine in lymphocytes with Pokeweed mitogen at a concentration of 1/5000 microg with out compound
Homo sapiens [21] = species on record: Homo sapiens; test: Mitogen-induced human lymphocyte proliferation measured by incorporation of [3H]thymidine in lymphocytes with Pokeweed mitogen at a concentration of 1/1250 microg with compound at 10 uM
Homo sapiens [22] = species on record: Homo sapiens; test: Mitogen-induced human lymphocyte proliferation measured by incorporation of [3H]thymidine in lymphocytes with Phytohemagglutininin at a concentration of 0.125 microg with compound at 10 uM
Homo sapiens [23] = species on record: Homo sapiens; test: Mitogen-induced human lymphocyte proliferation measured by incorporation of [3H]thymidine in lymphocytes with Pokeweed mitogen at a concentration of 1/5000 microg with compound at 0.1 uM
Homo sapiens [24] = species on record: Homo sapiens; test: Mitogen-induced human lymphocyte proliferation measured by incorporation of [3H]thymidine in lymphocytes with Phytohemagglutininin at a concentration of 1 ug with compound at 10 uM
Homo sapiens [25] = species on record: Homo sapiens; test: Mitogen-induced human lymphocyte proliferation measured by incorporation of [3H]thymidine in lymphocytes with Phytohemagglutininin at a concentration of 0.125 microg with compound at 50 uM
Homo sapiens [26] = species on record: Homo sapiens; test: Mitogen-induced human lymphocyte proliferation measured by incorporation of [3H]thymidine in lymphocytes with Pokeweed mitogen at a concentration of 1/5000 microg with compound at 50 uM
Homo sapiens [27] = species on record: Homo sapiens; test: Mitogen-induced human lymphocyte proliferation measured by incorporation of [3H]thymidine in lymphocytes with Pokeweed mitogen at a concentration of 1/5000 microg with compound at 10 uM
Homo sapiens [28] = species on record: Homo sapiens; test: Mitogen-induced human lymphocyte proliferation measured by incorporation of [3H]thymidine in lymphocytes with Concanavalin A (Con A) at a concentration of 0.25 microg with compound at 0.1 uM
Homo sapiens [29] = species on record: Homo sapiens; test: Mitogen-induced human lymphocyte proliferation measured by incorporation of [3H]thymidine in lymphocytes with Phytohemagglutininin at a concentration of 0.125 microg with compound at 1 uM
Homo sapiens [30] = species on record: Homo sapiens; test: Mitogen-induced human lymphocyte proliferation measured by incorporation of [3H]thymidine in lymphocytes with Pokeweed mitogen at a concentration of 1/1250 microg with compound at 400 uM
Homo sapiens [31] = species on record: Homo sapiens; test: Mitogen-induced human lymphocyte proliferation measured by incorporation of [3H]thymidine in lymphocytes with Pokeweed mitogen at a concentration of 1/1250 ug with compound at 0.1 uM
Homo sapiens [32] = species on record: Homo sapiens; test: Mitogen-induced human lymphocyte proliferation measured by incorporation of [3H]thymidine in lymphocytes with Phytohemagglutininin at a concentration of 0.25 ug with compound at 10 uM
Homo sapiens [33] = species on record: Homo sapiens; test: Mitogen-induced human lymphocyte proliferation measured by incorporation of [3H]thymidine in lymphocytes with Pokeweed mitogen at a concentration of 1/1250 ug with compound at 400 uM
Homo sapiens [34] = species on record: Homo sapiens; test: Mitogen-induced human lymphocyte proliferation measured by incorporation of [3H]thymidine in lymphocytes with Pokeweed mitogen at a concentration of 1/1250 ug with compound at 10 uM
Homo sapiens [35] = species on record: Homo sapiens; test: Mitogen-induced human lymphocyte proliferation measured by incorporation of [3H]-thymidine in lymphocytes with Phytohemagglutininin at a concentration of 0.25 ug with compound at 0.1 uM
Homo sapiens [36] = species on record: Homo sapiens; test: Mitogen-induced human lymphocyte proliferation measured by incorporation of [3H]thymidine in lymphocytes with Phytohemagglutininin at a concentration of 0.25 ug with out compound
Homo sapiens [37] = species on record: Homo sapiens; test: Mitogen-induced human lymphocyte proliferation measured by incorporation of [3H]thymidine in lymphocytes with Concanavalin A (Con A) at a concentration of 0.5 ug with compound at 0.1 uM
Homo sapiens [38] = species on record: Homo sapiens; test: Mitogen-induced human lymphocyte proliferation measured by incorporation of [3H]thymidine in lymphocytes with Pokeweed mitogen at a concentration of 1/1250 ug with compound at 50 uM
Homo sapiens [39] = species on record: Homo sapiens; test: Mitogen-induced human lymphocyte proliferation measured by incorporation of [3H]thymidine in lymphocytes with Pokeweed mitogen at a concentration of 1/1250 ug with out compound
Homo sapiens [40] = species on record: Homo sapiens; test: Mitogen-induced human lymphocyte proliferation measured by incorporation of [3H]thymidine in lymphocytes with Pokeweed mitogen at a concentration of 1/1250 ug with compound at 1 uM
Homo sapiens [41] = species on record: Homo sapiens; test: Mitogen-induced human lymphocyte proliferation measured by incorporation of [3H]thymidine in lymphocytes with Concanavalin A (Con A) at a concentration of 0.5 ug with out compound
Homo sapiens [42] = species on record: Homo sapiens; test: Mitogen-induced human lymphocyte proliferation measured by incorporation of [3H]thymidine in lymphocytes with Concanavalin A (Con A) at a concentration of 0.5 ug with compound at 50 uM
Homo sapiens [43] = species on record: Homo sapiens; test: Mitogen-induced human lymphocyte proliferation measured by incorporation of [3H]thymidine in lymphocytes with Concanavalin A at a concentration of 0.5 ug with compound at 400 uM
Homo sapiens [44] = species on record: Homo sapiens; test: Mitogen-induced human lymphocyte proliferation measured by incorporation of [3H]-thymidine in lymphocytes with Concanavalin A (Con A) at a concentration of 0.5 ug with compound at 1 uM
Homo sapiens [45] = species on record: Homo sapiens; test: Mitogen-induced human lymphocyte proliferation measured by incorporation of [3H]thymidine in lymphocytes with Phytohemagglutininin at a concentration of 0.25 ug with compound at 400 uM
Homo sapiens [46] = species on record: Homo sapiens; test: Mitogen-induced human lymphocyte proliferation measured by incorporation of [3H]thymidine in lymphocytes with Concanavalin A (Con A) at a concentration of 0.5 ug with compound at 10 uM
Homo sapiens [47] = species on record: Homo sapiens; test: Mitogen-induced human lymphocyte proliferation measured by incorporation of [3H]thymidine in lymphocytes with Phytohemagglutininin at a concentration of 0.25 ug with compound at 1 uM
Homo sapiens [48] = species on record: Homo sapiens; test: Mitogen-induced human lymphocyte proliferation measured by incorporation of [3H]thymidine in lymphocytes with Phytohemagglutininin at a concentration of 0.25 ug with compound at 50 uM
Homo sapiens [49] = species on record: Homo sapiens; test: Mitogen-induced human lymphocyte proliferation measured by incorporation of [3H]-thymidine in lymphocytes with Phytohemagglutininin at a concentration of 1 ug with compound at 10 uM

## Nc1nc(O)c2c(C(=O)O)cn(C3O[C@H](CO)[C@@H](O)[C@H]3O)c2n1 (some centres undefined)
Homo sapiens [1]
  Incorporation: 55547
Homo sapiens [2]
  Incorporation: 13682
Homo sapiens [3]
  Incorporation: 40349
Homo sapiens [4]
  Incorporation: 42670
Homo sapiens [5]
  Incorporation: 52418
Homo sapiens [6]
  Incorporation: 53594
Homo sapiens [7]
  Incorporation: 38824
Homo sapiens [8]
  Incorporation: 42403
Homo sapiens [9]
  Incorporation: 44790
Homo sapiens [10]
  Incorporation: 51152
Homo sapiens [11]
  Incorporation: 10034
Homo sapiens [12]
  Incorporation: 12990
Homo sapiens [13]
  Incorporation: 15708
Homo sapiens [14]
  Incorporation: 9782
Homo sapiens [15]
  Incorporation: 50597
Homo sapiens [16]
  Incorporation: 43757
Homo sapiens [17]
  Incorporation: 1268
Homo sapiens [18]
  Incorporation: 36835
Homo sapiens [19]
  Incorporation: 45537
Homo sapiens [20]
  Incorporation: 40053
Homo sapiens [21]
  Incorporation: 54392
Homo sapiens [22]
  Incorporation: 17242
Homo sapiens [23]
  Incorporation: 47896
Homo sapiens [24]
  Incorporation: 42486
Homo sapiens [25]
  Incorporation: 15707
Homo sapiens [26]
  Incorporation: 42735
Homo sapiens [27]
  Incorporation: 43600
Homo sapiens [28]
  Incorporation: 45121
Homo sapiens [29]
  Incorporation: 14865
Homo sapiens [30]
  Incorporation: 14118

## Nc1nc2c(c(C(=O)N[C@@H](CCC(=O)O)C(=O)O)nn2C2O[C@H](CO)[C@@H](O)[C@H]2O)c(=O)[nH]1 (some centres undefined)
Homo sapiens [1]
  Incorporation: 44427
Homo sapiens [3]
  Incorporation: 56641
Homo sapiens [31]
  Incorporation: 51918
Homo sapiens [7]
  Incorporation: 49176
Homo sapiens [32]
  Incorporation: 16224
Homo sapiens [33]
  Incorporation: 49556
Homo sapiens [18]
  Incorporation: 50246
Homo sapiens [34]
  Incorporation: 49105
Homo sapiens [35]
  Incorporation: 8002
Homo sapiens [19]
  Incorporation: 50330
Homo sapiens [36]
  Incorporation: 6506
Homo sapiens [37]
  Incorporation: 43786
Homo sapiens [38]
  Incorporation: 53140
Homo sapiens [39]
  Incorporation: 40443
Homo sapiens [40]
  Incorporation: 56187
Homo sapiens [41]
  Incorporation: 26393
Homo sapiens [42]
  Incorporation: 41114
Homo sapiens [43]
  Incorporation: 45681
Homo sapiens [44]
  Incorporation: 49196
Homo sapiens [45]
  Incorporation: 13781
Homo sapiens [46]
  Incorporation: 47573
Homo sapiens [47]
  Incorporation: 12995
Homo sapiens [48]
  Incorporation: 14187
Homo sapiens [49]
  Incorporation: 50830
